Earlier results on 1 molecule are cited in patent US20050123612A1, “Ribavirin granulate for producing coated tablets” (priority 2001, published 2005).

For the data set, the system named is embryo development. The following applies: animal experiments; in particular first six weeks of embryo development.

SMILES strings stand for the structures.

With `NC(=O)c1ncn([C@@H]2O[C@H](CO)[C@@H](O)[C@H]2O)n1` [ribavirin, 1-β-D-Ribafuranosyl-1,2,4-triazole-3-carboxamide], the teratogenicity entry is “teratogenic”.
